In ChEMBL document CHEMBL3286257, “Development of second generation EP2 antagonists with high selectivity” (Eur J Med Chem, 2014):

How the values were obtained:
[1] = target: Prostaglandin E2 receptor EP2 subtype (Homo sapiens) (UniProt P43116); test: Antagonist activity at EP2 receptor (unknown origin) expressed in rat C6 cells assessed as inhibition of PGE2-induced response; format: cell-based
[2] = Metabolic stability of the compound in mouse liver microsomes assessed as compound remaining at 10 uM after 30 mins; format: ADME; conditions: read-out: Stability
[3] = Metabolic stability of the compound in human liver microsomes assessed as compound remaining at 10 uM after 30 mins; format: ADME; conditions: read-out: Stability
[4] = Metabolic stability of the compound in human liver microsomes assessed as compound remaining at 10 uM after 15 mins; format: ADME; conditions: read-out: Stability
[5] = Metabolic stability of the compound in human liver microsomes assessed as compound remaining at 10 uM after 60 mins; format: ADME; conditions: read-out: Stability
[6] = Aqueous solubility of the compound by nephelometry method; format: physicochemical; conditions: buffer
[7] = Metabolic stability of the compound in mouse liver microsomes assessed as compound remaining at 10 uM after 15 mins; format: ADME; conditions: read-out: Stability
[8] = Metabolic stability of the compound in mouse liver microsomes assessed as compound remaining at 10 uM after 60 mins; format: ADME; conditions: read-out: Stability
[9] = target: T1, Prostaglandin D2 receptor (Homo sapiens) (UniProt Q13258); test: Antagonist activity at DP1 receptor (unknown origin) expressed in rat C6 cells by TR-FRET assay; format: cell-based
T1 sequence (whole entry): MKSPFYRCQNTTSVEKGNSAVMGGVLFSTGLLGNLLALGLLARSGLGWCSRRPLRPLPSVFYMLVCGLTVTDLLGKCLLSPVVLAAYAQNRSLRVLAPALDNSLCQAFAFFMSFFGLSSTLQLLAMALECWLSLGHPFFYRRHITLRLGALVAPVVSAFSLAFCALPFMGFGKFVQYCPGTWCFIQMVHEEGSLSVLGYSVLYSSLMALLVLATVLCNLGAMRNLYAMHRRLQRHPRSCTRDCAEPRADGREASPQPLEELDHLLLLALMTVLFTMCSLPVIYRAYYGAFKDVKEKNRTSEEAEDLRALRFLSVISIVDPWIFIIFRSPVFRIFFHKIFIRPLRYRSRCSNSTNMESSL

[10] = target: Prostaglandin E2 receptor EP4 subtype (Homo sapiens) (UniProt P35408); test: Antagonist activity at EP4 receptor (unknown origin) expressed in rat C6 cells assessed as inhibition of PGE2-induced response; format: cell-based
Chain of Prostaglandin E2 receptor EP4 subtype (Homo sapiens) (P35408 whole entry): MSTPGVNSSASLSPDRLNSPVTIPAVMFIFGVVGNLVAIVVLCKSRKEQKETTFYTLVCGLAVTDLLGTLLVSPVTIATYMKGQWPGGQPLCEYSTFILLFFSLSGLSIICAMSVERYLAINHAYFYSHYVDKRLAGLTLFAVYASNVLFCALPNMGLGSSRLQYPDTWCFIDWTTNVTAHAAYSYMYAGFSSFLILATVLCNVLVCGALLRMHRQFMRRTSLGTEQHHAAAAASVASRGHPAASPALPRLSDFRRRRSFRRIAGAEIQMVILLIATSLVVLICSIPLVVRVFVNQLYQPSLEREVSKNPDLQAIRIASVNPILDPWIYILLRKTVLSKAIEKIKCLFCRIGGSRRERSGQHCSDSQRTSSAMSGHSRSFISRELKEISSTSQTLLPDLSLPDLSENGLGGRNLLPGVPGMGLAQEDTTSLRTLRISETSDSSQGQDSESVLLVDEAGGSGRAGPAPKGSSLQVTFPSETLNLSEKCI

EP2 receptor = test: Therapeutic index, ratio of CC50 for rat C6 cells to KB for EP2 receptor (unknown origin); format: cell-based; conditions: read-out: TI
Homo sapiens [11] = organism: Homo sapiens; test: Selectivity index, ratio of KB for DP1 receptor (unknown origin) to KB for EP2 receptor (unknown origin)
C6 = test: Cytotoxicity against rat C6 cells; format: cell-based; conditions: c6
Homo sapiens [12] = organism: Homo sapiens; test: Selectivity index, ratio of KB for IP receptor (unknown origin) to KB for EP2 receptor (unknown origin)
[13] = target: Prostacyclin receptor (Homo sapiens) (UniProt P43119); test: Antagonist activity at IP receptor (unknown origin) expressed in rat C6 cells by TR-FRET assay; format: cell-based
Chain of Prostacyclin receptor (Homo sapiens) (P43119 whole entry): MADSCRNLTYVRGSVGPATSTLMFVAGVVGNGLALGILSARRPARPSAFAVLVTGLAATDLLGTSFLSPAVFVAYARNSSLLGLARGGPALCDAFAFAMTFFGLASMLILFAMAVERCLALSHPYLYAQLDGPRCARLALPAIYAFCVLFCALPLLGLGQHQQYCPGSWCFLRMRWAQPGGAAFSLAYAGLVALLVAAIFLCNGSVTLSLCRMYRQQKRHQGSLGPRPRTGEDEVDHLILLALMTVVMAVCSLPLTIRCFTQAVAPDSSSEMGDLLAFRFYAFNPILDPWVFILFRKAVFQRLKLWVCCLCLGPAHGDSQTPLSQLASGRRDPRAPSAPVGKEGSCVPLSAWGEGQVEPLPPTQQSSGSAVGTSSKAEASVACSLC

Homo sapiens [14] = organism: Homo sapiens; test: Selectivity index, ratio of KB for EP4 receptor (unknown origin) to KB for EP2 receptor (unknown origin)

Chain of Prostaglandin E2 receptor EP2 subtype (Homo sapiens) (P43116 whole entry): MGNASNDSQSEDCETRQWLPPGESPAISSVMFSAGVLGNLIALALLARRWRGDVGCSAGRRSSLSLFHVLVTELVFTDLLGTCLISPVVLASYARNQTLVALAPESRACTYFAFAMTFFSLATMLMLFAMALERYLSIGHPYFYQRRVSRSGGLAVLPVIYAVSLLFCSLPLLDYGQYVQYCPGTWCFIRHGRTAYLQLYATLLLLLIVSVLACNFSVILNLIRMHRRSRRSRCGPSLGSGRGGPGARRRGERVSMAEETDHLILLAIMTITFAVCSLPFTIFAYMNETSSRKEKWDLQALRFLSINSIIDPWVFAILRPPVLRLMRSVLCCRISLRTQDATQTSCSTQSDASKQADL

SMILES	Kb [1]	further results
CC(=O)Nc1ccc(C(=O)NCCn2c(C)cc3ccccc32)cc1	97 nM	
Cc1cc2ccccc2n1CCNC(=O)c1ccc(N2CCN(C)CC2)cc1	64 nM	
Cc1cc2ccccc2n1CCNC(=O)c1ccc(C2CCCN(C(=O)OC(C)(C)C)C2)cc1 (centres undefined)	95 nM	
Cc1cc2ccccc2n1CCNC(=O)c1ccc(C(=O)OC(C)(C)C)cc1	100 nM	
CCN(CC)C(=O)c1ccc(C(=O)NCCc2c(C)[nH]c3ccccc23)cc1	> 1000 nM	
CCN(CC)c1ccc(C(=O)NCCn2c(C)cc3ccccc32)cc1C(F)(F)F	310 nM	
Cc1cc2ccccc2n1CCNC(=O)c1ccc(C2CCCNC2)cc1 (centres undefined)	> 1000 nM	
Cc1cc2ccccc2n1CCNC(=O)c1ccc(NC(=O)c2ccccc2F)cc1	51 nM	
Cc1cc2ccccc2n1CCNC(=O)c1ccc(-n2nn[nH]c2=S)cc1	32.2 nM	
Cc1cc2ccccc2n1CCNC(=O)c1ccc(O)cc1	> 1000 nM	
CCN(CC)c1ccc(C(=O)NCCn2c(C(F)(F)F)cc3ccccc32)cc1	150 nM	
Cc1cc2ccccc2n1CCNC(=O)c1ccc(CCN)cc1	1220 nM	
Cc1cc2ccccc2n1C1CCCN(C(=O)c2ccc(N3CCOCC3)cc2)C1 (centres undefined)	> 1000 nM	
CCOC(=O)C1CCN(c2ccc(C(=O)NCCn3c(C)cc4ccccc43)cc2)CC1	500 nM	
CCNc1ccc(C(=O)NCCn2c(C)cc3ccccc32)cc1	15.5 nM	
CCNc1ccc(C(=O)NCCn2c(C)cc3ccccc32)cc1C(F)(F)F	20.2 nM	
CCNc1ncc(C(=O)NCCn2c(C)cc3ccccc32)cn1	57.8 nM	
Cc1cc2ccccc2n1CCNC(=O)c1ccc(-n2cnnn2)cc1	42.2 nM	remaining at 0.5 h, 10 µM [2]: 26%; remaining at 0.5 h, 10 µM [3]: 54%; remaining at […], 10 µM [4]: 75%; remaining at 1 h, 10 µM [5]: 26%; solubility kinetic [6]: < 25 µM; remaining at […], 10 µM [7]: 50%; remaining at 1 h, 10 µM [8]: 7.5%
Cc1cc2ccccc2n1CCNC(=O)c1cnc(N)nc1	> 1000 nM	
CCN(CC)c1ccc(C(=O)NCCCn2c(C)cc3ccccc32)cc1	> 1000 nM	

SMILES	Kb [1]	further results
Cc1cc2ccccc2n1CCNC(=O)c1ccc(NC(=N)N)cc1	> 1000 nM	
Cc1cc2ccccc2n1CCNC(=O)c1cccc(N2CCN(C)CC2)c1	770 nM	
Cc1[nH]c2ccccc2c1CCNC(=O)c1ccc(N2CCOCC2)c(F)c1	66 nM	
CC(=O)Nc1ccc(C(=O)NCCc2c(C)[nH]c3ccccc23)cc1	138 nM	
Cc1cc2ccccc2n1CCNC(=O)c1ccc(CN2CCOCC2)cc1	970 nM	
Cc1cc2ccccc2n1CCNC(=O)c1ccc(N2CCCN(C)CC2)cc1	148 nM	
Cc1cc2ccccc2n1CCNC(=O)c1ccc(C#N)cc1	140 nM	
Cc1cc2ccccc2n1CCNC(=O)c1ccc(N2CCC(C)CC2)cc1	30.3 nM	
Cc1cc2ccccc2n1CCNC(=O)c1ccc(CN)cc1	690 nM	
Cc1cc2ccccc2n1CCNC(=O)c1ccc(S(N)(=O)=O)cc1	486 nM	
CC1=Nc2ccccc2C1CCNC(=O)c1cnc(N2CCOCC2)nc1 (centres undefined)	280 nM	
COc1cc(C(=O)NCCn2c(C)cc3ccccc32)cc(OC)c1OC	> 1000 nM	
Cc1cc2ccccc2n1CCNC(=O)C1CCC(c2ncccn2)CC1 (centres undefined)	380 nM	
Cc1cc2ccccc2n1CCNC(=O)c1ccc(CNC(=O)OC(C)(C)C)cc1	84 nM	
CCN(CC)c1ccc(C(=O)NCCn2c(C)nc3ccccc32)cc1	190 nM	
Cc1cc2ccccc2n1CCNC(=O)c1nc2cc(F)ccc2[nH]1	130 nM	
Cc1cc2ccccc2n1CCNC(=O)c1ccc2c(c1)n(C)c(=O)n2C	20.9 nM	Kb [9]: 6.29 µM; Kb [10]: 36.1 µM; selectivity ratio (EP2 receptor): 7370; Ratio (Homo sapiens [11]): 300; CC50 (C6): 154 µM; Ratio (Homo sapiens [12]): 1200; Kb [13]: 25.2 µM; Ratio (Homo sapiens [14]): 1730
Cc1cc2ccccc2n1CCNC(=O)c1ccc(C(N)=O)cc1	150 nM	
Cc1cc2ccccc2n1CCNC(=O)c1cnc(N2CCOCC2)nc1	76.5 nM	
